Where two headings read alike, the source gives them in different places.
Columns and labels:
BRD4 (BD1) = molecular target: T1, BRD4 (BD1) (Homo sapiens, UniProt O60885); test: BRD4 AlphaLisa binding assay
T1 construct: His; made in house
Procedure: A. IC50 Measurements for Inhibitors Using BRD4 AlphaLisa Binding Assay.
Specifically, in a 384 well ProxiPlate BRD4 (BD1) (30 nM final) was combined with peptide (200 nM final) in 40 mM HEPES (pH 7.0), 40 mM NaCl, 1 mM DTT, 0.01% (w/v) BSA, and 0.008% (w/v) Brij-35 either in the presence of DMSO (final 1.2% DMSO) or compound dilution series in DMSO. After 20 minute incubation at room temperature Alpha streptavidin donor beads and AlphaLisa anti-Flag acceptor beads were added to a final concentration of 10 ug/mL each. After three hours equilibration plates were read on an Envision instrument and IC50s calculated using a four parameter non-linear curve fit.

[1] = test system: IL-6 secretion in THP-1 cells; test: Cell-based IL-6 quantification assay (ELISA, Mesoscale) in LPS-treated THP-1 cells; conditions: Homo sapiens, LPS 4 μg/mL, 16 h, ELISA value/CellTiter-Glo ratio
Procedure: C. Cell-Based IL-6 Quantification Assay (ELISA, Mesoscale Assay):
100,000 THP-1 cells were seeded in RPMI1640-10% FBS in 96-well plates. LPS (E. Coli Invitrogen) in RPMI−10% FBS at a final concentration of 4 μg/mL was added to the wells and the cells are then incubated in the presence of various concentrations of compounds for 16 h. Plates are spun ([…], 5 min), an aliquot of 25 uL supernatant is transferred in to an ELISA plate (Mesoscale technology, MSD) and the detection of IL-6 is performed using manufacturer's instructions. The amount of cells in each well is assessed using CellTiter-Glo® (Promega). The ratio of ELISA value/CellTiter-Glo value is used to calculate the percent of inhibition of IL-6 secretion.

[2] = test system: MYC mRNA in MV4:11 (AML) cells; test: cMyc RNA quantification assay (QuantiGene) in MV4:11 cells; format: cell-based; conditions: Homo sapiens, 4 h, QuantiGene 2.0
Procedure: B. cMyc RNA Quantification Assay (QuantiGene® Assay):
MV4:11 (AML) cells were seeded in a 96-well plate and incubated in the presence of various concentrations of compounds for 4 h. Relative mRNA levels were quantitated by using QuantiGene 2.0 assay (Affymetrix) according to the manufacturer's recommendation. Signals were detected by using an Envision plate reader (Perkin-Elmer). Biological duplicates were averaged and normalized to vehicle (DMSO) control to calculate percent MYC mRNA levels.

[3] = BRD4 (BD1) 30 nM, biotinylated H4-tetraacetyl peptide 200 nM, read-out: BRD4 AlphaLisa

SMILES: Cc1nnc2n1-c1ccccc1N(c1ccc(Cl)cc1)CC2(C)C [Compound 3, 6-(4-chlorophenyl)-1,4,4-trimethyl-5,6-dihydro-4H-benzo[b][1,2,4]triazolo[4,3-d][1,4]diazepine]
- IC50 (BRD4 (BD1)): 100 to 1000 nM
- IC50 [1]: 100 to 1000 nM
- IC50 [2]: 1000 to 10000 nM

SMILES: Cc1nnc2n1-c1ccc(-c3ccc(N)nc3)cc1N(c1ccc(Cl)cc1)CC2 [Compound 15, 5-(6-(4-chlorophenyl)-1-methyl-5,6-dihydro-4H-benzo[b][1,2,4]triazolo[4,3-d][1,4]diazepin-8-yl)pyridin-2-amine]
- IC50 (BRD4 (BD1); [3]): < 100 nM
- IC50 [1]: < 100 nM
- IC50 [2]: 100 to 1000 nM

SMILES: Cc1nnc2n1-c1ccc(-c3ccc(N)nc3)cc1N(c1ccc(C#N)cc1)CC2 [Compound 16, 4H-[1,2,4]triazolo[4,3-a][1,5]benzodiazepine, 5,6-dihydro-1-methyl-8-(6-aminopyridin-3-yl)-6-(4-cyano-phenyl)]
- IC50 (BRD4 (BD1); [3]): 100 to 1000 nM
- IC50 [1]: 100 to 1000 nM
- IC50 [2]: 100 to 1000 nM

SMILES: Cc1nnc2n1-c1c(F)cccc1N(c1ccc(Cl)cc1)CC2 [Compound 17, 6-(4-chlorophenyl)−10-fluoro-1-methyl-5,6-dihydro-4H-benzo[b][1,2,4]triazolo[4,3-d][1,4]diazepine]
- IC50 (BRD4 (BD1); [3]): 1000 to 10000 nM
- IC50 [1]: > 1000 nM
- IC50 [2]: 1000 to 10000 nM

SMILES: Cc1nnc2n1-c1ccccc1N(c1ccc(Cl)cc1)C(C)C2 (stereo not drawn) [Compound 18, 6-(4-chlorophenyl)-1,5-dimethyl-5,6-dihydro-4H-benzo[b][1,2,4]triazolo[4,3-d][1,4]diazepine]
- IC50 (BRD4 (BD1); [3]): 100 to 1000 nM
- IC50 [1]: > 1000 nM
- IC50 [2]: 1000 to 10000 nM

SMILES: Cc1nnc2n1-c1ccc(-c3ccc(N)nc3)cc1N(c1ccc(C(F)(F)F)cc1)CC2 [Compound 19, 4H-[1,2,4]triazolo[4,3-a][1,5]benzodiazepine,5,6-dihydro-1-methyl-8-(6-amino-pyridin-3-yl)-6-(4-trifluoromethyl-phenyl)]
- IC50 (BRD4 (BD1); [3]): < 100 nM
- IC50 [1]: < 100 nM
- IC50 [2]: 100 to 1000 nM

SMILES: Cc1nnc2n1-c1ccc(-c3ccc(C(=O)O)cc3)cc1N(c1ccc(Cl)cc1)CC2 [Compound 20, 4H-[1,2,4]triazolo[4,3-a][1,5]benzodiazepine,5,6-dihydro-1-methyl-8-(4-carboxy-phenyl)-6-(4-chloro-phenyl)]
- IC50 (BRD4 (BD1); [3]): < 100 nM
- IC50 [1]: 100 to 1000 nM
- IC50 [2]: 100 to 1000 nM

SMILES: Cc1nnc2n1-c1ccc(-c3ncccn3)cc1N(c1ccc(Cl)cc1)CC2 [Compound 21, 6-(4-chlorophenyl)-1-methyl-8-(pyrimidin-2-yl)-5,6-dihydro-4H-benzo[b][1,2,4]triazolo[4,3-d][1,4]diazepine]
- IC50 (BRD4 (BD1); [3]): 100 to 1000 nM
- IC50 [1]: 100 to 1000 nM
- IC50 [2]: 1000 to 10000 nM

SMILES: Cc1nnc2n1-c1ccccc1N(c1ccc(Cl)cc1)C(C)(C)C2 [Compound 22, 6-(4-chlorophenyl)-1,5,5-trimethyl-5,6-dihydro-4H-benzo[b][1,2,4]triazolo[4,3-d][1,4]diazepine]
- IC50 (BRD4 (BD1); [3]): > 10000 nM
- IC50 [1]: 1000 to 10000 nM
- IC50 [2]: 100 to 1000 nM

SMILES: Cc1nnc2n1-c1ccc(-c3ccc(N)nc3)cc1N(c1ccc(Cl)cc1)CC2C (stereo not drawn) [Compound 23, 4H-[1,2,4]triazolo[4,3-a][1,5]benzodiazepine,5,6-dihydro-1,4-dimethyl-8-(6-aminopyridin-3-yl)-6-(4-chloro-phenyl)]
- IC50 (BRD4 (BD1); [3]): < 100 nM
- IC50 [1]: < 100 nM
- IC50 [2]: < 100 nM

SMILES: Cc1nnc2n1-c1ccc(-c3ncc(C(=O)O)cn3)cc1N(c1ccc(Cl)cc1)CC2 [Compound 24, 4H-[1,2,4]triazolo[4,3-a][1,5]benzodiazepine, 5,6-dihydro-1-methyl-8-(5-(carboxy)pyrimidin-2-yl)-6-(4-chloro-phenyl)]
- IC50 (BRD4 (BD1); [3]): < 100 nM
- IC50 [1]: > 1000 nM
- IC50 [2]: 1000 to 10000 nM

SMILES: Cc1nnc2n1-c1ccc(-c3cnc(N)nc3)cc1N(c1ccc(Cl)cc1)CC2C (stereo not drawn) [Compound 25]
- IC50 (BRD4 (BD1); [3]): < 100 nM
- IC50 [1]: 100 to 1000 nM
- IC50 [2]: < 100 nM

SMILES: Cc1nnc2n1-c1ccc(-c3ccc(N)nc3)cc1N(c1ccc(Cl)cc1)C[C@H]2C [Compound 26, (R)-4H-[1,2,4]triazolo[4,3-a][1,5]benzodiazepine, 5,6-dihydro-1,4-dimethyl-8-(6-aminopyridin-3-yl)-6-(4-chloro-phenyl)]
- IC50 (BRD4 (BD1); [3]): < 100 nM
- IC50 [1]: < 100 nM
- IC50 [2]: < 100 nM

SMILES: Cc1nnc2n1-c1ccc(-c3ccc(N)nc3)cc1N(c1ccc(Cl)cc1)C[C@@H]2C [Compound 27, (S)-4H-[1,2,4]triazolo[4,3-a][1,5]benzodiazepine, 5,6-dihydro-1,4-dimethyl-8-(6-aminopyridin-3-yl)-6-(4-chloro-phenyl)]
- IC50 (BRD4 (BD1); [3]): 100 to 1000 nM
- IC50 [1]: 100 to 1000 nM
- IC50 [2]: 1000 to 10000 nM

SMILES: Cc1ccc(-c2ccc3c(c2)N(c2ccc(Cl)cc2)C[C@H](C)c2nnc(C)n2-3)cn1 [Compound 28, (S)-4H-[1,2,4]triazolo[4,3-a][1,5]benzodiazepine, 5,6-dihydro-1,4-dimethyl-8-(6-methylpyridin-3-yl)-6-(4-chloro-phenyl)]
- IC50 (BRD4 (BD1); [3]): 1000 to 10000 nM
- IC50 [1]: 1000 to 10000 nM
- IC50 [2]: 1000 to 10000 nM

SMILES: Cc1ccc(-c2ccc3c(c2)N(c2ccc(Cl)cc2)C[C@@H](C)c2nnc(C)n2-3)cn1 [Compound 29, (R)-4H-[1,2,4]triazolo[4,3-a][1,5]benzodiazepine, 5,6-dihydro-1,4-dimethyl-8-(6-methylpyridin-3-yl)-6-(4-chloro-phenyl)]
- IC50 (BRD4 (BD1); [3]): < 100 nM
- IC50 [1]: < 100 nM
- IC50 [2]: < 100 nM

SMILES: Cc1nnc2n1-c1ccc(Br)cc1N(c1ccc(Cl)cc1)C[C@@H]2C [Compound 37, (S)-4H-[1,2,4]triazolo[4,3-a][1,5]benzodiazepine, 5,6-dihydro-1,4-dimethyl-8-bromo-6-(4-chloro-phenyl)]
- IC50 (BRD4 (BD1); [3]): 1000 to 10000 nM
- IC50 [1]: > 1000 nM
- IC50 [2]: 1000 to 10000 nM

SMILES: Cc1nnc2n1-c1ccc(Br)cc1N(c1ccc(Cl)cc1)C[C@H]2C [Compound 38, (R)-4H-[1,2,4]triazolo[4,3-a][1,5]benzodiazepine,5,6-dihydro-1,4-dimethyl-8-bromo-6-(4-chloro-phenyl)]
- IC50 (BRD4 (BD1); [3]): 100 to 1000 nM
- IC50 [1]: 100 to 1000 nM
- IC50 [2]: 100 to 1000 nM

SMILES: Cc1nnc2n1-c1ccc(-c3cnc(N)nc3)cc1N(c1ccc(Cl)cc1)C[C@H]2C [Compound 39, (R)-4H-[1,2,4]triazolo[4,3-a][1,5]benzodiazepine,5,6-dihydro-1,4-dimethyl-8-(2-aminopyrimidin-5-yl)-6-(4-chloro-phenyl)]
- IC50 (BRD4 (BD1); [3]): < 100 nM
- IC50 [1]: < 100 nM
- IC50 [2]: < 100 nM

SMILES: Cc1nnc2n1-c1ccc(C(N)=O)cc1N(c1ccc(Cl)cc1)C[C@H]2C [Compound 41, 4-R-4H-[1,2,4]Triazolo[4,3-a][1,5]benzodiazepine,5,6-dihydro-1,4-dimethyl-8-carbamoyl-6-(4-chloro-phenyl)]
- IC50 (BRD4 (BD1); [3]): < 100 nM
- IC50 [1]: 100 to 1000 nM
- IC50 [2]: < 100 nM

SMILES: Cc1nnc2n1-c1ccc(-c3cnn(C)c3)cc1N(c1ccc(Cl)cc1)C[C@@H]2C [Compound 42, (S)-4H-[1,2,4]triazolo[4,3-a][1,5]benzodiazepine, 5,6-dihydro-1,4-dimethyl-8-(1-methyl-1H-pyrazol-4-yl)-6-(4-chloro-phenyl)]
- IC50 (BRD4 (BD1); [3]): 100 to 1000 nM
- IC50 [1]: > 1000 nM
- IC50 [2]: 1000 to 10000 nM

SMILES: Cc1nnc2n1-c1ccc(-c3cnn(C)c3)cc1N(c1ccc(Cl)cc1)C[C@H]2C [Compound 43, (R)-(4H-[1,2,4]triazolo[4,3-a][1,5]benzodiazepine,5,6-dihydro-1,4-dimethyl-8-(1-methyl-1H-pyrazol-4-yl)-6-(4-chloro-phenyl))]
- IC50 (BRD4 (BD1); [3]): < 100 nM
- IC50 [1]: < 100 nM
- IC50 [2]: < 100 nM

SMILES: Cc1nnc2n1-c1ccc(-c3cnn(C)c3)cc1N(c1ccc(C#N)cc1)C[C@H]2C [Compound 44, (R)-4H-[1,2,4]triazolo[4,3-a][1,5]benzodiazepine, 5,6-dihydro-1,4-dimethyl-8-(1-methyl-1H-pyrazol-4-yl)-6-(4-cyano-phenyl)]
- IC50 (BRD4 (BD1); [3]): < 100 nM
- IC50 [1]: < 100 nM
- IC50 [2]: < 100 nM

SMILES: Cc1nnc2n1-c1ccc(-c3cnn(CC(N)=O)c3)cc1N(c1ccc(Cl)cc1)C[C@H]2C [Compound 46, 4H-[1,2,4]triazolo[4,3-a][1,5]benzodiazepine,5,6-dihydro-(4R)-1,4-dimethyl-8-(1-(2-amino-2-oxoethyl)-1H-pyrazol-4-yl)-6-(4-chloro-phenyl)]
- IC50 (BRD4 (BD1); [3]): < 100 nM
- IC50 [1]: 100 to 1000 nM
- IC50 [2]: 100 to 1000 nM

SMILES: Cc1nnc2n1-c1ccc(C(=O)NCCO)cc1N(c1ccc(Cl)cc1)C[C@H]2C [Compound 47, 4-R-4H-[1,2,4]triazolo[4,3-a][1,5]benzodiazepine,5,6-dihydro-1,4-dimethyl-8-(2-hydroxyethylcarbamoyl)-6-(4-chloro-phenyl)]
- IC50 (BRD4 (BD1); [3]): 100 to 1000 nM
- IC50 [1]: 100 to 1000 nM
- IC50 [2]: 100 to 1000 nM
